23 molecules from ChEMBL document CHEMBL1124817, “Synthesis and Ca2+ antagonistic activity of 2-[2-[(aminoalkyl)oxy]-5-methoxyphenyl]-3,4-dihydro-4-methyl-3-oxo-2H- 1,4-benzothiazines” (J Med Chem, 1990) can be followed below.

SMILES strings stand for the structures. Some results are limits rather than exact numbers.

Test [1] is filed under the species Cavia porcellus. Kind of test: Inhibitory concentration required to block Ca+2 induced contraction of K+ depolarized guinea pig taenia cecum. Format: functional, Caecum.
For test [2], the species on record is Cavia porcellus. Kind of test: Inhibitory concentration required to block Ca+2 induced contraction of K+ depolarized guinea pig aorta. Type of test: functional.
For test [3], the species on record is Cavia porcellus. Kind of test: Inhibitory concentration required to suppress the rate of contraction of guinea pig right atria. Type of test: functional.
A short description of test [4]: Selectivity ratio of IC50 for [Ca2+] antagonistic activity in aorta / IC50 for suppressive effect on rate of contraction. Format: functional.
For test [5], the species on record is Cavia porcellus. Kind of test: Inhibitory concentration required to suppress the contractile force of guinea pig right atria. Type of test: functional.
A short description of test [6]: Selectivity ratio of IC50 for [Ca2+] antagonistic activity in aorta / IC50 for suppressive effect on contractile force. Format: functional.

On to `COc1ccc(OCCCN(C)CCOc2c(OC)cccc2OC)c(C2Sc3ccccc3N(C)C2=O)c1` (stereo unspecified), for which 510 nM corresponded to half-maximal inhibition in the test listed under Cavia porcellus [1] (Cavia porcellus, Caecum) (IC50).
With `COc1ccc(OCCCCN(C)CCOc2ccc3c(c2)OCO3)c(C2Sc3ccccc3N(C)C2=O)c1` (stereo unspecified), the IC50 in the test filed under Cavia porcellus [2] came out at 330 nM; in the test listed under Cavia porcellus [3] (read-out: IC50) it was 190 nM; in the test listed under Cavia porcellus [1] (Cavia porcellus, Caecum) it was 170 nM; in the test listed under Cavia porcellus [5] it was 94 nM. The Ratio in test [4] stood at 1.7; in test [6], 3.5.
For `COc1ccc(OCCCN(C)CCOc2cc(OC)c(OC)c(OC)c2)c(C2Sc3ccccc3N(C)C2=O)c1` (stereo unspecified), the IC50 in the test listed under Cavia porcellus [2] is 4100 nM; in the test filed under Cavia porcellus [3] (read-out: IC50), 500 nM; in the test listed under Cavia porcellus [1] (Cavia porcellus, Caecum), 230 nM; in the test filed under Cavia porcellus [5], 370 nM. In addition, the Ratio is given as 8.2 in test [4] and 11.1 in test [6].
In the test listed under Cavia porcellus [1] (Cavia porcellus, Caecum), `COc1cc(OC)cc(OCCN(C)CCCOc2ccc(OC)cc2C2Sc3ccccc3N(C)C2=O)c1` (stereo unspecified) displayed an IC50 of 550 nM.
In the test filed under Cavia porcellus [1] (Cavia porcellus, Caecum), `COc1ccc(OCCCN(CCOc2ccc3c(c2)OCO3)C(C)C)c(C2Sc3ccccc3N(C)C2=O)c1` (stereo unspecified) showed an IC50 of 1900 nM.
Regarding `COc1ccc(OCCCCN(C)CCOc2ccc(OC)c(OC)c2)c(C2Sc3ccccc3N(C)C2=O)c1` (stereo unspecified), the IC50 in the test filed under Cavia porcellus [2] came out at 2900 nM; in the test listed under Cavia porcellus [3] (read-out: IC50) it was 600 nM; in the test filed under Cavia porcellus [1] (Cavia porcellus, Caecum), 230 nM; in the test filed under Cavia porcellus [5], 440 nM. Also, the Ratio in test [4] is 4.8; in test [6] it was 6.6.
For the molecule `COc1ccc([C@@H]2Sc3ccccc3N(CCN(C)C)C(=O)[C@@H]2OC(C)=O)cc1` [DILTIAZEM], the IC50 came out at 4500 nM in the test listed under Cavia porcellus [2], 600 nM in the test listed under Cavia porcellus [3] (read-out: IC50) and 95 nM in the test listed under Cavia porcellus [5]. Also, the Ratio in test [4] is given as 7.5; in test [6] it was 47.4.
Take `COc1ccc(OCCCN(C)CCOc2ccc3c(c2)OCO3)c(C2Sc3ccccc3N(C)C2=O)c1` (stereo in doubt; 15): the IC50 in the test listed under Cavia porcellus [2] turned out to be 660 nM; in the test filed under Cavia porcellus [3] (read-out: IC50), 590 nM; in the test listed under Cavia porcellus [1], 180 nM; in the test filed under Cavia porcellus [5], 310 nM. Further, the Ratio is recorded as 1.1 in test [4] and 2.1 in test [6].
Consider `COc1ccc(OCCCN(C)CCOc2ccc3c(c2)OCO3)c(C2(SC)Sc3ccccc3N(C)C2=O)c1` (stereo unspecified), for which, in the test listed under Cavia porcellus [1] (Cavia porcellus, Caecum), the IC50 came to 1500 nM.
Regarding `COc1ccc(OCCCN(C)CCOc2ccc3c(c2)OCO3)c(C2Sc3ccccc3N(C)C2=O)c1` (stereo in doubt; (-)-15), the IC50 in the test filed under Cavia porcellus [1] was determined as 600 nM.
Consider `COc1ccc(CCN(C)CCCC(C#N)(c2ccc(OC)c(OC)c2)C(C)C)cc1OC` (stereo unspecified) [VERAPAMIL], for which the IC50 in the test filed under Cavia porcellus [2] was 620 nM; in the test filed under Cavia porcellus [3], 210 nM; in the test listed under Cavia porcellus [5], 35 nM. In addition, the Ratio in test [4] is given as 3; in test [6], 17.7.
Consider `COc1ccc(OCCCCN(C)CCOc2cc(OC)c(OC)c(OC)c2)c(C2Sc3ccccc3N(C)C2=O)c1` (stereo unspecified), for which the IC50 in the test listed under Cavia porcellus [2] turned out to be 1500 nM; in the test filed under Cavia porcellus [3] (read-out: IC50) it was 190 nM; in the test listed under Cavia porcellus [1] (Cavia porcellus, Caecum), 160 nM; in the test listed under Cavia porcellus [5], 200 nM. Besides, the Ratio in test [4] turned out to be 7.9; in test [6], 7.5.
The molecule `COc1ccc(OCCCCN(C)CCc2cc(OC)c(OC)c(OC)c2)c(C2Sc3ccccc3N(C)C2=O)c1` (stereo unspecified) returned an IC50 in the test listed under Cavia porcellus [1] (Cavia porcellus, Caecum) of 350 nM.
With `COc1ccc(OCCCN(C)CCOc2ccc3c(c2)OCO3)c(C2(OC)Sc3ccccc3N(C)C2=O)c1` (stereo unspecified), the IC50 in the test listed under Cavia porcellus [1] (Cavia porcellus, Caecum) was found to be 250 nM.
`COc1ccc(OCCCN(C)CCOc2ccc3c(c2)OCO3)c(C2(C)Sc3ccccc3N(C)C2=O)c1` (stereo unspecified): in the test listed under Cavia porcellus [1] (Cavia porcellus, Caecum), inhibition was half-maximal at 2100 nM (IC50).
In the test listed under Cavia porcellus [1] (Cavia porcellus, Caecum), `COc1ccc(OCCCN(C)CCOc2ccc3c(c2)OCO3)c(C2CN(C)c3ccccc3S2)c1` (stereo unspecified) came in with an IC50 of more than 10000 nM.
As for `COc1ccc(OCCCN(C)CCOc2ccc3c(c2)OCO3)c([C@H]2Sc3ccccc3N(C)C2=O)c1` [SEMOTIADIL], the IC50 stood at 230 nM in the test listed under Cavia porcellus [2]; 180 nM in the test filed under Cavia porcellus [3] (read-out: IC50); 89 nM in the test filed under Cavia porcellus [1] (Cavia porcellus, Caecum); 68 nM in the test listed under Cavia porcellus [5]. The figures for the Ratio in test [4] and in test [6] were 1.3 and 3.4, respectively.
Regarding `COc1ccc(OCCCN(C)CCOc2ccc3c(c2)CCC3)c(C2Sc3ccccc3N(C)C2=O)c1` (stereo unspecified), in the test filed under Cavia porcellus [1] (Cavia porcellus, Caecum), the IC50 was more than 10000 nM.
The molecule `COc1ccc(OCCCN(C)CCOc2ccc3c(c2)OCO3)c(C2Sc3ccccc3N(C)C2=S)c1` (stereo unspecified) showed an IC50 in the test filed under Cavia porcellus [1] (Cavia porcellus, Caecum) of more than 10000 nM.
The molecule `COc1ccc(OCCCN(C)CCOc2ccc3c(c2)OCO3)c(C2(C(C)C)Sc3ccccc3N(C)C2=O)c1` (stereo unspecified) had an IC50 in the test listed under Cavia porcellus [1] (Cavia porcellus, Caecum) of more than 10000 nM.
In the test listed under Cavia porcellus [1] (Cavia porcellus, Caecum), `COc1ccc(OCCCNCCOc2ccc3c(c2)OCO3)c(C2Sc3ccccc3N(C)C2=O)c1` (stereo unspecified) displayed an IC50 of 490 nM.
Turning to `COc1ccc(OCCCN(C)CCc2cc(OC)c(OC)c(OC)c2)c(C2Sc3ccccc3N(C)C2=O)c1` (stereo unspecified), the IC50 in the test listed under Cavia porcellus [2] was determined as 2400 nM; in the test listed under Cavia porcellus [3] (read-out: IC50), 400 nM; in the test filed under Cavia porcellus [1] (Cavia porcellus, Caecum) it was 270 nM; in the test listed under Cavia porcellus [5] it was 520 nM. In addition, the Ratio in test [4] amounted to 6; in test [6], 4.6.
`COc1ccc(OCCN(C)CCCCOc2ccc(OC)cc2C2Sc3ccccc3N(C)C2=O)cc1` (stereo unspecified) had an IC50 in the test filed under Cavia porcellus [1] (Cavia porcellus, Caecum) of 530 nM.
